# Entries after “also recorded” stand apart in the source; their conditions may differ. Where two headings read alike, the source gives them in different places.
# Key:
# Pf NF54 female gametes = test: Dual gamete formation assay, female gamete formation; type: cell-based, Plasmodium falciparum; settings: carry-over and wash-out
# Protocol: Pf NF54 gametocytes were generated as reported elsewhere ([Delves et al., 2016]). Briefly, static cultures of unsynchronized asexual parasites were continuously maintained as above. Parasites were cultured at 1% ring-stage parasitemias and 4% (v/v) hematocrit prior to the induction of gametocytes. To prepare gametocytes, 75% of the media was replaced daily for 14 subsequent days without adding fresh RBCs. During this process the temperature was kept strictly constant, as the rate of exflagellation is highly temperature-dependent. Between days 1 and 4 after culture induction, the asexual parasitemias increased rapidly to a peak. By day 7, as the asexual population waned, early-stage gametocytes became observable. By day 8, gametocyte maturation had progressed, and by day 14 morphologically distinguishable, mature stage V male and female gametocytes were present. […] Control reactions contained DMSO or 20 μM methylene blue (as negative and positive controls, respectively). […] After imaging, the plate was incubated at 18°C for a further 24 h to allow female gametes to maximally express Pfs25, followed by fluorescence microscopy imaging using a 10× objective. Both time lapse images of exflagellation and fluorescence images of female gametes were automatically quantified using custom scripts in ICY BioImage Analysis ([Delves et al., 2016]).
# Pf Dd2-B2 ABS parasites = test: 72-h asexual blood stage (ABS) growth inhibition assay, Dd2-B2; type: cell-based, Plasmodium falciparum
# Protocol: Synchronicity was achieved using three rounds of sorbitol treatment on early rings, spaced 48 h apart, followed by magnetic purification of segmented schizonts following the final sorbitol treatment. Parasites were highly synchronous to within a 3 h window of development. Assays were repeated on at least three independent occasions (each with technical duplicates) and statistical significance was assessed using Mann Whitney U tests.
# [1] = test system: ed. Dd2-B2 TKL3I1250M+T1268R; test: 72-h ABS assay, CRISPR/Cas9-edited double-mutant line; type: cell-based; settings: Plasmodium falciparum, parent Dd2-B2 wild-type
# Excerpt: Supplement mmc2.xlsx, sheet "Table S1 (I)" | column: Mean IC50
# female gamete formation = settings: ref Miguel-Blanco et al., 2017; cited from earlier work
# [2] = test system: early and late stage gametocytes (3D7elo1-pfs16-CBG99); test: Gametocyte susceptibility, CBG99-luciferase assay; type: cell-based; settings: Plasmodium falciparum
# Protocol: This was determined using two separate assays. The first involved MitoTracker staining and high-content imaging. Mature (stage V) gametocytes were generated from NF54 ABS cultures as described elsewhere ([Plouffe et al., 2016]). Briefly, asexual parasites were cultured at 5% hematocrit in O^+ human erythrocytes in serum-containing complete media (RPMI 1640 (Life Technologies), 0.05 mg/ml gentamicin (Life Technologies), 0.014 mg/ml hypoxanthine (Sigma), 38.4 mM HEPES (Sigma), 0.2% (w/v) sodium bicarbonate (Sigma), D-glucose 0.2% (w/v) (Sigma), 3.4 mM sodium hydroxide (Sigma), 4.3% (v/v) heat-inactivated human serum (O^+, Interstate Blood bank), and 0.2% (w/v) AlbuMAX® II (Life Technologies)). Parasites were cultured at 37 °C under low-oxygen conditions (3% O2, 5% CO2, 92% N2) and parasitemias were maintained between 0.5% and 3% in cultures with 5% hematocrit. Ring-stage parasites underwent three rounds of synchronization with 5% (w/v) D-Sorbitol (Sigma), on days -8, -6 and -4 relative to the day of initiating gametocyte production. Trophozoite-stage parasites were shaken overnight at 37°C until day -1. On day -2 only 50% of the media was exchanged to provide additional stress to cultures, whose parasitemias had typically attained 7-10%. Complete media exchange was performed daily from day -1 onwards. Stage V gametocytes were treated with 50 mM N-acetyl glucosamine (Sigma) on days 0-9. […] The second assay assessed gametocyte susceptibility using a luciferase-based assay with 3D7elo1-pfs16-CBG99 transgenic parasites ([Cevenini et al., 2014]). […] Cell viability was then evaluated by adding a non-lysing formulation of 0.5 mM D-Luciferin substrate and measuring luciferase activity for 0.5 s on a Varioskan™ Flash Multimode Reader (Thermo Scientific). The percent of viability was calculated as a function of drug concentration and IC50 values were derived by non-linear regression analysis and curve fitting (using GraphPad Prism 6.0).
smiles,measurement,setting,value
CC(C)(CN)c1nc(-c2ccc(Cl)c(O)c2)c(-c2ccncc2)[nH]1 [MMV030084],Activity against female gametes,Pf NF54 female gametes,ambiguous results; also recorded: little to no activity
same,IC50,"Pf Dd2-B2 ABS parasites; Plasmodium falciparum, DD2, 72 h, read-out: Mean IC50, 72 h ABS activity, Dd2-B2 wild-type, 72 h",0.12 µM
same,IC50,"Pf Dd2-B2 ABS parasites; read-out: Mean IC50, 72 h ABS activity, Dd2-B2 wild-type, 72 h",0.12 µM
same,IC50,[1],0.347 µM
same,Inhibition of female gamete formation,female gamete formation,inhibitors of female gamete formation
same,IC50,"[2]; read-out: IC50, sexual gametocyte stage (Figure 1B)",> 37.5 µM
same,IC50,"[2]; CBG99-luciferase assay, 48 h, read-out: IC50, early stage gametocytes",> 40 µM
same,IC50,"[2]; CBG99-luciferase assay, 48 h, read-out: IC50, late stage gametocytes",> 40 µM
